Values belong to the compound of their own block, whether it stands above or below them.
Columns and labels:
[1] = molecular target: T1, human leukocyte 5-lipoxygenase (Homo sapiens, UniProt P09917); assay: 5-Lipoxygenase assay in human leukocytes, formation of 5-HETE (5LOA; 5LOA1 or 5LOA2 not specified); type: cell-based
T1 construct: endogenous in cells; host or cells: leukocytes from fresh human blood
T1 sequence (P09917 1-674): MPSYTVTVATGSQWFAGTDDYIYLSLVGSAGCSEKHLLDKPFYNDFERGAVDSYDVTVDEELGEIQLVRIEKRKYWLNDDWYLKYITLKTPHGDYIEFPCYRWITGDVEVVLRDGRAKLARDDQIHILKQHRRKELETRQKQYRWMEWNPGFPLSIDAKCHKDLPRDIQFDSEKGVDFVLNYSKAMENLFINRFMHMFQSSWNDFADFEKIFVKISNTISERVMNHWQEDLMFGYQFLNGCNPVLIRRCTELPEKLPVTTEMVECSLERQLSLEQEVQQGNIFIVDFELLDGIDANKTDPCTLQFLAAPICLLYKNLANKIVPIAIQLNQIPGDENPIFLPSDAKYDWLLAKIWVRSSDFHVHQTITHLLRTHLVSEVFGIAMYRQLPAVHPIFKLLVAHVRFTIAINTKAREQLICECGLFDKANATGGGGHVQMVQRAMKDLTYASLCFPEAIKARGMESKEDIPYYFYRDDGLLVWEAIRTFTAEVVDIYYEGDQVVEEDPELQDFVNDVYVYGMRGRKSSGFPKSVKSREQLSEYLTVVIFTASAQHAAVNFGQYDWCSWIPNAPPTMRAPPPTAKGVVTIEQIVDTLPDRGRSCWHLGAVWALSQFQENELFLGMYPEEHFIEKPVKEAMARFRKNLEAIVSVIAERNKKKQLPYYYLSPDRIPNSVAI
Source text: To Evaluate the Effect of Each Compounds as a 5-Lipoxygenase Inhibitor in Comparison to Standard Reference Agents in Human Leukocytes (5LOAl)
The purpose of this assay is to evaluate the activity of each compound as an inhibitor of human leukocyte 5-lipoxygenase.
Arachidonic acid and calcium ionophore A23l87 are obtained from Sigma (St. Louis, Mo.). Silica gel plates, GF are obtained from Analtech (Newark, Del.). Arachidonic acid, (1-^14 C) and 5-HETE (^3 H), 5 (S)-hydroxy-6-trans, 8,11,14-cis eicosatetraenoic acid, are obtained from New England Nuclear (Boston, Mass.). Six percent Dextran-70 in 0.9% NaCl is obtained from Cutter Labs (Berkeley, Calif.).
Fresh blood from normal adult men who had not received any drugs for at least the previous five days is obtained by the Community Research Clinic (WL/PD) using venipuncture and collected into heparinized vacuotainer tubes. To every 100 ml of pooled blood is added 25 ml of dextran solution (6% dextran -70 in 0.9% sodium chloride containing 3% dextrose) and this is mixed gently in a plastic cylinder. The mixture is left to stand at room temperature for at least 90 minutes. The upper layer which is rich in leukocytes and platelets is then carefully decanted into 50 ml plastic tubes and centrifuged at about 100×g for eight minutes in an IEC centrifuge and rotor number 269 (about 600 rpm). The supernatant fluid is discarded and the pellet is resuspended in 10 ml of 0.87% ammonium chloride for exactly two minutes. This procedure is to lyse completely contaminating red blood cells. Leukocytes are then separated by centrifugation for ten minutes. The pellet is washed three times by suspension in 20 ml PBS (sodium chloride, 7.1 g; Na2 HPO4, 1.15 g; KH2 PO4, 0.2 g, and KCl, 0.2 g/L) and centrifuged as before. The final pellet is suspended in PBS containing 0.87 mM CaCl2. Viability of the cells is then checked using trypan blue exclusion method and is found to be over 90%.
Leukocyte cells in suspension (0.98 ml) are incubated with or without test compounds for five minutes at 37° C. in a shaking water bath. At this time a 17 μl mixture is prepared per 1 ml of cell suspension: 100 mM arachidonic acid, 1 μl, 0.05 μCi ^14 C-arachidonic acid in 5 .rho.l; 1 mM calcium ionophore A23187, 10 μl (1). This mixture is added and the incubation continued for five minutes. The reaction is stopped by adding four volumes of absolute ethanol and the mixture is kept in ice for 30 minutes. The floculated precipitate is separated by centrifugation at about 37,000×g for 20 minutes (Beckman Instruments rotor number 40). The alcohol extract is taken to dryness under a stream of nitrogen and the residue is dissolved in 100-200 μl absolute ethanol. At the time any turbidity is removed by centrifugation. An aliquot (25-50 μl) is applied onto 20×20 cm silica gel TLC plate and developed using the following solvent system: diethyl ether, petroleum ether (2040° C.), acetic acid (50:50: 1 v/v). Zones of 1 cm apart are scraped from the TLC plate and transferred to mini-vials. Methanol (0.5 ml) is added to dissolve the radioactivity adsorbed to the silica gel and scintillation fluid (H.P., Beckman), 5 ml is then added and vials are counted in a liquid scintillation counter. A sample of ^3 H-5-HETE is applied and used for the identification of the formed 5-HETE.
Total radioactivity in the test as well as the control samples are normalized and the amount of 5-HETE present is calculated accordingly.
IC50 values are defined as the concentrations of test agents which caused a 50% inhibition of the formation of 5-HETE as compared to control and are determined by inspection of the concentration-response curves.
The formation of 5-HETE in human leukocytes is considered a measure of 5-lipoxygenase activity. The protocol is described in the following.
Fresh heparinized or EDTA treated human blood is mixed with 6% dextran-3% dextrose in isotonic saline in the ratio 0.25 ml dextran solution per 1.0 ml blood. […]

[2] = test system: Human Leukocyte Lipoxygenase; assay: Human Leukocyte Lipoxygenase Assay (LDA-H); type: biochemical
Description: Whole blood is collected from normal volunteers and spun in a refrigerated centrifuge for four minutes at 1°-6° C. at 3800 g. The buffy coat is manually separated and washed twice with chilled 0.83% NH4 Cl and centrifuged at 1000 RPM for ten minutes at 4° C. The white cell is suspended in culture media-EMEM supplemented with 6% Agamma human serum, tricine buffer, and neomycin and recentrifuged at 1000 g to yield a pellet containing the leukocytes used for the preparation of the acetone pentane powder.
The acetone-pentane powder is prepared utilizing a modification of the procedure reported for human platelet lipoxygenase. See Siegel, et al, Arachidonate Metabolism via Lipoxygenase and 12-L-hydro-peroxy-5 Eicosatetraenoic Acid Peroxidase Sensitive to Antiinflammatory Drugs, Proc. Natl. Acad. Sci., U.S.A. 77:308, 1980 and D. P. Wallach and V. R. Brown, A Novel Preparation of Human Platlet Lipoxygenase, Biochem. Biophys. Acta. 663:361, 1981. Buffy coat prepared above is resuspended in 5-7 volumes of cold 0.1M Tris buffer, pH 7.4 containing 0.154M NaCl. The suspension is centrifuged at 13,300 g for ten minutes at 4° C. The resultant pellet is retained, resuspended in five volumes of cold acetone, recentrifuged at 13,300 g and resuspended in five volumes of cold pentane. The pentane suspension is centrifuged for ten minutes at 13,300 g to give a pellet which is dried in the cold under vacuum with periodic pulverization. The dry powder is stable for several weeks when stored at -80° C.
Enzyme stock solution is prepared in the following manner. About 15 mg of the acetone-pentane powder is suspended in 4 ml of cold tris buffer (0.1M, pH 7.4), allowed to stand for five minutes, and homogenized thoroughly. The homogenate is sonicated three times for 15 seconds each time, diluted to 7 ml with cold tris buffer (0.1M, pH 7.4), and centrifuged at 4° C. for 60 minutes at 13,300 g. The supernatent is retained and diluted to a total of 10 ml with cold tris buffer (0.1M, pH 7.4) to give the stock enzyme solution. Additional dilutions of 2-50 fold are done as necessary to locate optimal enzyme reaction rate in the assay described below.
Substrate solution is prepared at 100 μM or 1.0 μM concentrations of arachidonic acid or linoleic acid in 0.1M tris buffer, pH 9.0 containing 20% ethanol.
The enzyme reaction is followed spectrophotometrically by the appearance of a conjugated diene product at 234 nm. The reaction is monitored at 24° C. using a Gilford Model 2600 spectrophotometer. […] The effects of inhibitors on the reaction are compared with control reactions run under indentical conditions. Routinely, each compounds of the present invention is incubated with the enzyme for five minutes prior to addition of substrate to initiate the reaction. Inhibition expressed as IC50 as molar concentration of the compound required to reduce reaction rate to 50% control.

Compound: O=C(Nc1ccc(CCc2ccc(C(F)(F)F)cc2)cc1)C1CS(=O)(=O)c2ccccc2C1=O (centres unmarked) [Example 44]
5LOA, % Inhibition ([1]; 1.00 E -5 M): +19.6% | 5LOA, % Inhibition ([1]; 2.00 E -5 M): +5.8% | 5LOA, % Inhibition ([1]; 4.00 E -5 M): 30.0% | LDAH, % Inhibition ([2]; 2.50 E -5 M): 0.0%

Compound: CCCCCCc1ccc(NC(=O)C2CS(=O)(=O)c3ccccc3C2=O)cc1 (centres unmarked) [Example 58, N-(4-Hexylphenyl)-3,4-dihydro-4-oxo-2H-1-benzothiopyran-3-carboxamide, 1-1-dioxide]
LDAH, % Inhibition ([2]; 8.00 E -5 M): 0.0%

Compound: CCCCCCCCc1ccc(NC(=O)C2CS(=O)(=O)c3ccccc3C2=O)cc1 (centres unmarked) [Example 59, 3,4-Dihydro-N-(4-octylphenyl)-4-oxo-2H-1-benzothiopyran-3-carboxamide, 1,1-dioxide]
LDAH, % Inhibition ([2]; 2.50 E -5 M): 0.0%

Compound: O=C(Nc1ccc(CCc2cccc(O)c2)cc1)C1CS(=O)(=O)c2ccccc2C1=O (centres unmarked) [Example 82]
LDAH, % Inhibition ([2]; 8.00 E -5 M): 0.0%

Compound: CCCCCCCCCCc1ccc(NC(=O)C(=O)c2oc3cc(OC)c(OC)cc3c2O)cc1 [Example 119, 2-Benzofuranacetamide, N-[4-decylphenyl]-3-hydroxy-5,6-dimethoxy-α-oxo]
IC50 ([2]; conjugated diene at 234 nm, pH 9.0, 24 °C, read-out: LDAH, concentration for 50% inhibition (IC)): 7.9 nM

The next lines start with the values.

LDAH, % Inhibition ([2]; 2.50 E -5 M): 0.0%
Compound: O=C(Nc1ccc(CCc2ccc3ccccc3c2)cc1)C1=C(O)c2ccccc2S(=O)(=O)C1 [Example 51, 4-Hydroxy-N-[4-[2-(2-naphthalenyl)ethyl]phenyl]-2H-1-benzothiopyran-3-carboxamide, 1,1-dioxide]

LDAH, % Inhibition ([2]; 2.50 E -5 M): 0.0%
Compound: COc1ccc(CCc2ccc(NC(=O)C3Oc4cc5ccccc5cc4C3=O)cc2)cc1OC (centres unmarked) [Example 101, Naphtho[2,3-b]furan-2-carboxamide, N-[4-[2-(3,4-dimethoxyphenyl)ethyl]phenyl]-2,3-dihydroxy-3-oxo]

LDAH, % Inhibition ([2]; 8.00 E -5 M): 0.0%
Compound: COc1ccc(CCc2ccc(NC(=O)C(=O)c3oc4cc(OC)c(OC)cc4c3O)cc2)cc1OC [Example 115, 2-Benzofuranacetamide, N-[4-[2-(3,4-dimethoxyphenyl)ethyl]phenyl]-3-hydroxy-5,6-dimethoxy-α-oxo]

LDAH, % Inhibition ([2]; 2.50 E -5 M): 0.0%
Compound: COc1ccc(CCc2ccc(NC(=O)C(=O)C3Oc4cc5ccccc5cc4C3=O)cc2)cc1OC (stereo not drawn) [Example 117, Naptho[2,3-b]furan-2-acetamide, N-[4-[2-(3,4-dimethoxyphenyl)ethyl]phenyl]-2,3-dihydro-α,3dioxo]

LDAH, % Inhibition ([2]; 2.50 E -5 M): 0.0%
Compound: O=C(Nc1ccc(CCc2ccc(O)c(O)c2)cc1)C1Oc2c(n(-c3ccccc3)c3ccc(O)cc23)C1=O (centres unmarked) [Example 163, 2H-Furo[3,2-b]indole-2-carboxamide, N-[4-[2-(3,4-dihydroxyphenyl)ethyl]phenyl]-3,4-dihydro-7-hydroxy-3-oxo-4-phenyl]

5LOA, % Inhibition ([1]; 1.00 E -5 M): 7.0% | 5LOA, % Inhibition ([1]; 2.00 E -5 M): 2.0% | 5LOA, % Inhibition ([1]; 2.00 E -6 M): 8.0% | LDAH, % Inhibition ([2]; 2.50 E -5 M): 0.0%
Compound: COc1ccc(CCc2ccc(NC(=O)C(=O)c3[nH]c4cc(C)c(C)cc4c3O)cc2)cc1OC [Example 175, 1H-Indole-2-acetamide, N-[4-[2-(3,4-dimethoxyphenyl)ethyl]phenyl]-3-hydroxy-5,6-dimethyl-α-oxo]
